Read-outs that look alike come from different tables or passages of the source.
Legend:
Format in all cases: in vivo
[1] = test system: Plasmopara viticola, pathogen of grape downy mildew; experiment: Grape downy mildew control test, foliage application (Test Example 3)
Excerpt: (§1) Control value=100(A−B)/A “Equation 1”
A plastic pot was filled with sandy soil, and grape (Berry A) was then disseminated. The grape was allowed to grow in a green house for 40 days. A wettable powder of the compound (1b) and a wettable powder of ethaboxam were respectively diluted with water and then tank-mixed so as to prepare tank-mixed liquids containing compound (1b) and ethaboxam in predetermined concentration. The tank-mixed liquids were subjected to foliage application such that they could be sufficiently adhered to the underside of the leaves of the aforementioned grape plants. After the foliage application, the plants were air-dried. Thereafter, an aqueous suspension of sporangia of Plasmopara viticola, pathogen of grape downy mildew, was sprayed on the grape plants to inoculate the pathogen. They were placed at 23° C. under high humidity for one day after the inoculation, cultured in a greenhouse at 23° C. for 5 days. The grape plants were thereafter placed at 23° C. under high humidity for one day and infected area was checked.
As a comparison, the respective wettable powders described above were diluted with water in predetermined concentration so as to prepare compound (1b) liquids and a ethaboxam liquid respectively and they were subjected to similar disease control test. In order to calculate the control value, the incidence of disease was also determined in the case in which the plants had not been treated with the agent. The relative incidence of disease of each treated area was determined as the incidence of disease of the area assuming that the incidence of disease of untreated area was represented as 100, and the control value was calculated by Equation 1 based on the incidence of disease thus determined.

[2] = test system: Phytophthora infestans, pathogen of tomato late blight; conditions: foliage application
[3] = test system: Pythium ultimum, pathogen of cucumber damping-off; experiment: Cucumber damping-off control test, seed treatment (Test Example 2)
Description: as §1
Generally, the control value expected for the case in which the given two kinds of active ingredient compounds are mixed and used for the treatment, the so-called control value expectation is calculated from the following Colby's calculating equation. E=X+Y−(X×Y)/100 “Equation 2”
E: Control value (%) expected for the case in which active ingredient compound A in M ppm or in M g per 100 kg of seeds and active ingredient compound B in N ppm or in N g per 100 kg of seeds are mixed and used for treatment (hereinbelow referred to as “control value expectation”) “Synergetic effect(%)”=(Actual control value)×100/(Control value expectation)
An acetone solution of the compound (1b) and an acetone solution of ethaboxam were mixed to prepare mixed liquids containing the compound (1b) and ethaboxam in predetermined concentration. These mixed liquids were adhered on the surface of cucumber (Sagamihanjiro) seeds and allowed to stand still overnight to obtain treated seeds. A plastic pot was filled with sandy soil and the treated seeds were disseminated on it. Then the seeds were covered with sandy soil which had been mixed with a bran medium on which Pythium ultimum, pathogen of cucumber damping-off, had been allowed to grow. They were irrigated and allowed to grow at 18° C. under humidity for 13 days, and thereafter control effect was checked. The incidence of disease was calculated by Equation 3 and the control value was calculated by Equation 1 based on the incidence of disease.
As a comparison, acetone solutions containing the compound (1b) in the predetermined concentration and an acetone solution containing ethaboxam in the predetermined concentration were prepared and subjected to similar tests. Incidence of disease=(Number of no emerging seedlings and number of seedlings in which development of disease was observed)×100/(Number of total disseminated seeds) “Equation 3”

SMILES: CNC(=O)C(OC)c1ccccc1COc1cc(C)ccc1C (racemic) [Compound (1b)]
- Actual control value ([1]; compound (1b) 2 ppm alone): 2%
- Actual control value ([2]; compound (1b) 10 ppm alone): 5%
- Actual control value ([2]; compound (1b) 50 ppm alone): 25%
- Actual control value ([3]; compound (1b) 5 g ai/100 kg-seed alone): 6.7%
- Actual control value ([3]; compound (1b) 10 g ai/100 kg-seed alone): 6.7%
- Actual control value ([3]; compound (1b) 20 g ai/100 kg-seed alone): 13%

SMILES: CCNc1nc(CC)c(C(=O)NC(C#N)c2cccs2)s1 (stereo not shown) [Ethaboxam, ethaboxam, reference compound]
- Actual control value ([1]; ethaboxam 0.4 ppm alone): 1%
- Actual control value ([1]; ethaboxam 2 ppm alone): 35%
- Actual control value ([2]; ethaboxam 0.4 ppm alone): 10%
- Actual control value ([3]; ethaboxam 10 g ai/100 kg-seed alone): 73%

Source: patent US8609585B2 (priority 2008, dated 2013)
